Measured values: publication PMC2717426, “The effect of exogenous glucagon-like peptide-1 on the glycaemic response to small intestinal nutrient in the critically ill: a randomised double-blind placebo-controlled cross over study” (Critical Care, 2009)

Tests used:
[1] = Plasma glucagon concentration (radioimmunoassay) during GLP-1 infusion; type: in vivo, critically ill patients; details: GLP-1 1.2 pmol/kg/min i.v.; trapezoidal rule; mean ± SEM, n = 7
[2] = Plasma insulin (ELISA) and insulin/glucose ratio during GLP-1 infusion; type: in vivo, critically ill patients; details: GLP-1 1.2 pmol/kg/min i.v., mean ± SEM, n = 7
Description: Patients were studied on two consecutive days, in which they received intravenous GLP-1 or placebo in a randomised, double-blind fashion. Twelve hours prior to the study, a naso-duodenal feeding catheter was inserted and confirmed via abdominal x-ray. On each study day enteral feeding was ceased at least four hours prior to the commencement of the study. Exogenous insulin (Actrapid, Novo-Nordisk, Copenhagen, Denmark) infusion was ceased at least two hours before the commencement of the study drug. Patient weight was provided by a relative and/or estimated by a dietician. […] The study investigators were blinded to each infusion, which were concealed in a glass bottle covered by black plastic. […]
Blood glucose was measured at the bedside using a portable glucometer (Medisense Optimum, Abbott, Melbourne, Australia). […] Plasma insulin was measured by ELISA (Diagnostics Systems Laboratories, Webster, Texas, USA) with an inter-assay coefficient of variation (CV) of 6.2%.
Data are presented as mean ± standard error of the mean. Area under the curve (AUC) was calculated using the trapezoidal rule. […] The ratios of insulin/glucose were calculated, as described previously. […] The difference between intervention and placebo was assessed using paired samples; Student's paired t-test and repeated measures analysis of variance. Data were evaluated for potential carry over effect. […]

[3] = GLP-1 infusion at 1.2 pmol/kg/min; postoperative patients with type 2 diabetes; cited from earlier work
Description: Hyperglycaemia in critically ill patients, not previously known to have diabetes, is associated with poorer outcomes than in patients with pre-existing diabetes. […] Insulin infusions were ceased two hours before the commencement of the study to ensure clearance of exogenous insulin. Given t ...

[4] = Blood glucose response to small intestinal nutrient infusion during intravenous GLP-1 infusion (bedside glucometer); type: in vivo, critically ill patients
Procedure: Seven critically ill adult patients (four males, three females, age range 28 to 76 years), predicted to remain mechanically ventilated for more than 48 hours, were studied. Exclusion criteria included pregnancy, pre-existing diabetes, contraindication to enteral feeding or post-pyloric catheter insertion, and previous surgery on the oesophagus, stomach or duodenum.
(§1) Patients were studied on two consecutive days, in which they received intravenous GLP-1 or placebo in a randomised, double-blind fashion. Twelve hours prior to the study, a naso-duodenal feeding catheter was inserted and confirmed via abdominal x-ray. On each study day enteral feeding was ceased at least four hours prior to the commencement of the study. Exogenous insulin (Actrapid, Novo-Nordisk, Copenhagen, Denmark) infusion was ceased at least two hours before the commencement of the study drug. Patient weight was provided by a relative and/or estimated by a dietician. […] The study investigators were blinded to each infusion, which were concealed in a glass bottle covered by black plastic. […] At t = 30 minute Ensure® (Abbott, Melbourne, Australia), a mixed nutrient liquid (64% carbohydrate, 1 kcal/ml), was delivered continuously into the small intestine at a rate of 1.5 ml/min for four hours (i.e. t = 30 to 270 min).
(§2) Blood glucose was measured at the bedside using a portable glucometer (Medisense Optimum, Abbott, Melbourne, Australia). Blood was collected, separated by centrifugation and the resulting plasma was stored at -70° until assayed for hormone concentrations. Plasma insulin was measured by ELISA (Diagnostics Systems Laboratories, Webster, Texas, USA) with an inter-assay coefficient of variation (CV) of 6.2%.
(§3) Data are presented as mean ± standard error of the mean. Area under the curve (AUC) was calculated using the trapezoidal rule. […] The ratios of insulin/glucose were calculated, as described previously. Statistical analyses were performed using SPSS (Version 15.0, Chicago, Illinois, USA). Distribution and sensitivity analysis, using nonparametric analyses, allowed parametric testing of data. The difference between intervention and placebo was assessed using paired samples; Student's paired t-test and repeated measures analysis of variance. Data were evaluated for potential carry over effect. The null hypothesis was rejected at the 0.05 significance.

[5] = Total plasma GLP-1 concentration (radioimmunoassay) during GLP-1 infusion; type: in vivo, critically ill patients
Description: as §1, §2, §3

[6] = Tolerability of the study infusion; type: in vivo, critically ill patients; details: GLP-1 1.2 pmol/kg/min i.v. over 270 minutes; all 7 patients
Description: as §1

[7] = GLP-1 1.2 pmol/kg/min i.v. t = 0-270 min, intra-duodenal Ensure 1.5 kcal/min t = 30-270 min, mean ± SEM, n = 7
[8] = GLP-1 1.2 pmol/kg/min i.v., total GLP-1, radioimmunoassay, mean ± SEM, n = 7

Substance: GLP-1-(7–36) amide
- Plasma glucagon AUC0–270 minutes [1]: 22,786 ± 6040 pmol/l min
- Plasma insulin AUC0–270 min ([2]; entire study period, trapezoidal rule): 16,203 ± 5193 mU/l min
- Plasma insulin, t = 270 min ([2]; intra-duodenal nutrient, ELISA): 79 ± 21 mU/l
- Effect on fasting glycaemia [3]: achieved fasting normoglycaemia
- Tolerability [3]: well tolerated
- Effect on blood glucose prior to nutrient infusion, t = 30 min ([4]; GLP-1 1.2 pmol/kg/min i.v. from t = 0, before start of small intestinal nutrient, vs placebo): no effect
- Blood glucose concentration, t = 180 min [4, 7]: 9.3 ± 0.6 mmol/L
- Peak blood glucose [4, 7]: 10.1 ± 0.7 mmol/L
- Overall glycaemic response, blood glucose AUC30–270 min ([4]; GLP-1 1.2 pmol/kg/min i.v., intra-duodenal Ensure 1.5 kcal/min t = 30-270 min, trapezoidal rule, mean ± SEM, n = 7): 2077 ± 144 mmol·min/L
- Baseline blood glucose concentration, t = 0 min ([4]; GLP-1 study day, prior to infusion, arterial blood, glucometer, mean ± SEM, n = 7): 7.5 ± 0.4 mmol/L
- Plasma GLP-1 AUC0–270 min ([5]; GLP-1 1.2 pmol/kg/min i.v. for 270 min, trapezoidal rule, mean ± SEM, n = 7): 31,659 ± 4203 pmol/l min
- Time after which steady state plasma GLP-1 concentrations were achieved ([5]; GLP-1 1.2 pmol/kg/min i.v. infusion): 30 min
- Plasma GLP-1 concentration, t = 30 min [5, 8]: 124 ± 15 pmol/L
- Plasma GLP-1 concentration, t = 90 min [5, 8]: 131 ± 13 pmol/L
- Tolerability of the study [6]: well tolerated
